# Laboratory results from patent US8242152B2, “Use of 4-[(4-thiazolyl)phenoxy]alkoxy-benzamidine derivatives for the prophylaxis and treatment of osteoporosis” (Dong Wha Pharmaceutical Co., Ltd., priority 2001, dated 2012).
# “Also recorded” adds a separate entry of the source.
# Legend:
# rabbit osteoclasts = assay: TRAP(+) MNC formation in isolated rabbit osteoclast cultures, single treatment without LTB4 (Example 6); assay type: cell-based
# Method: (§1) Rabbit osteoclasts were isolated as described by Victoria Tai's report (Doctoral Dissertation, 1997, Graduate Department of Pharmacology, University of Toronto) and Rraser P. Coxon et al. (Methods in Molecular Medicine, vol 80). Neonatal rabbits (New Zealand White) were sacrificed by ether-inhaling method under a hood. The removed long bones were dissected free of attached soft tissues and placed into ice-cold PBS. The long bones were cut longitudinally and mechanically curetted in 10 ml medium 199 with antibiotics (10 ug/ml penicillin G and 50 ug/ml gentamycin) in a glass Petri dish. Each bone was curetted with a scalpel blade and was finely minced. The fragments were then vigorously agitated by pipetting up and down using a pasteur pipette and vortex-mixed for 30 seconds. The fragments were allowed to settle and the cell suspension was then transferred to a 50 ml tube and the previous step repeated three times to a total volume of 40 ml. The bone fragments were allowed to settle (>1 min). The cell suspension was then transferred to a new 50 ml tube, passed through a 40 um cell strainer and centrifuged at 200 g for 8 minutes. The supernatant was removed and the pellet was immediately resuspended in α-MEM with 2% FBS (bicarbonate buffered medium).
# (§2) 40 uL droplets of osteoclast-containing suspensions were plated onto 60 mm tissue culture plastic dishes or on dentine slices in 96-well microtiter plates in 2% medium. The cells were allowed ninety minutes for attachment before the addition of 2 mL α-MEM with 2% FBS. After 24 hr culture, cells were washed to remove non-adherent cells and replaced with fresh medium as describes below.
# After 24 hr in culture, the medium was replaced with fresh medium containing control, LTB4 receptor antagonists (1000 nM), DW1350 (10, 100 and 1000 nM) or LTB4 (100 nM) and the cultures were continued for an additional 48 hrs.
# (§3) All cells were cultured at 37° C. in a humidified atmosphere of 95% air and 5% CO2 in bicarbonate buffered medium at pH 7.4.
# (§4) Differentiated osteoclasts are multinucleated cells and have specific enzyme activity, such as ‘tartrate-resistant acid phosphatase (TRAP)’. Therefore, Osteoclast formation was determined by counting the number of TRAP-positive multinucleated cells (TRAP(+) MNCs).
# (§5) After culture, the cells were fixed with 10% neutral buffered formalin for 30 min at 4° C., washed twice in distilled water and stained for TRAP activity by incubating with substrate. The number of TRAP(+)MNC with more than 2 nuclei was counted under photomicroscope.
# (§6) Results were expressed as mean number of TRAP(+)MNC±SD of All experiments were done at least twice. Statistical analysis was performed for each experiment by student t-test.
# [1] = test system: LTB4-induced osteoclast formation; assay: LTB4-induced osteoclast formation in rabbit osteoclast cultures, co-treatment and pre-treatment (Example 6); assay type: cell-based; details: dentin slices
# Method: as §1, §2
# After 24 hr in culture, the medium was removed and replaced with fresh medium containing both LTB4 receptor antagonist (1000 nM) and LTB4 (100 nM) or both DW1350 (1000 nM) and LTB4 (100 nM). The cultures were continued for an additional 48 hrs.
# After 6 hrs in culture, the medium was removed and cells were pretreated with LTB4 receptor antagonists such as LY292728 (Journal of Medical Chemistry, 1995, vol. 38, No. 10, p 4411-4432), SB209247 (Journal of Medical Chemistry, 1996, vol. 39, No. 19, p 3837-3841), LY293111(Journal of Medical Chemistry, 1995, vol. 38, No. 10, p 4411-4432) and LY223982 (Journal of Medical Chemistry, 1993, vol. 36, p 3333-3340) or DW1350-containing medium and culture continued for 18 hrs. The medium was replaced with medium containing both LTB4 receptor antagonist and LTB4 or DW1350 and LTB4. The cultures were continued for an additional 48 hrs.
# as §3, §4, §5, §6
compound,measurement,setting,value
"Cc1nc(-c2ccc(OCCCCCOc3ccc(C(=N)NO)cc3)cc2)c(C(C)C)s1 [DW1350, N-hydroxy-4-{5-[4-(5-isopropyl-2-methyl-1,3-thiazol-4-yl)phenoxy]pentoxy}-benzamidine]",number of TRAP(+) MNCs / osteoclast formation,"rabbit osteoclasts; 1000 nM, single treatment without LTB4, dentine slices, 48 hrs (FIG. 3-8)",significant inhibition on the formation of osteoclasts; also recorded: significantly inhibited it
same,cytotoxic effect based on cell morphology,"rabbit osteoclasts; 10˜1000 nM, 48 hours",No cytotoxic effect based on cell morphology was not observed
same,number of TRAP(+) MNCs,"rabbit osteoclasts; 10˜1000 nM, 48 hours, tissue culture dish, single treatment (FIG. 1, 2)",significantly decreased the number of TRAP(+) MNCs in a dose-dependent manner
same,LTB4-stimulated osteoclast formation,"[1]; pre-treatment 18 hrs, then 1000 nM compound + 100 nM LTB4 for 48 hrs",significant inhibition on LTB4-stimulated osteoclast formation
same,LTB4-stimulated osteoclast formation,"[1]; simultaneous treatment: 1000 nM compound + 100 nM LTB4, 48 hrs",significant inhibition on LTB4-stimulated osteoclast formation
